# Assay results reported in ChEMBL document CHEMBL6074708, “Advanced Delivery Systems and Novel Psilocin Derivatives for Enhanced Therapeutic Applications” (ACS Med Chem Lett, 2024).
# Target: 5-hydroxytryptamine receptor 2A (Homo sapiens) (UniProt P28223)
# Assay: Displacement of [3H]ketanserin from human 5HT2A receptor expressed in HEK293 cells at 0 to 10000 nM preincubated with compound for 30 mins followed by [3H]ketanserin addition and measured after 60 mins by microBeta scintillation counter relative to psilocin
# Type: cell-based
# Details: dose 0-10000 nM, time 90.0 min; call rule not given here
# Chain of 5-hydroxytryptamine receptor 2A (Homo sapiens) (P28223 whole entry): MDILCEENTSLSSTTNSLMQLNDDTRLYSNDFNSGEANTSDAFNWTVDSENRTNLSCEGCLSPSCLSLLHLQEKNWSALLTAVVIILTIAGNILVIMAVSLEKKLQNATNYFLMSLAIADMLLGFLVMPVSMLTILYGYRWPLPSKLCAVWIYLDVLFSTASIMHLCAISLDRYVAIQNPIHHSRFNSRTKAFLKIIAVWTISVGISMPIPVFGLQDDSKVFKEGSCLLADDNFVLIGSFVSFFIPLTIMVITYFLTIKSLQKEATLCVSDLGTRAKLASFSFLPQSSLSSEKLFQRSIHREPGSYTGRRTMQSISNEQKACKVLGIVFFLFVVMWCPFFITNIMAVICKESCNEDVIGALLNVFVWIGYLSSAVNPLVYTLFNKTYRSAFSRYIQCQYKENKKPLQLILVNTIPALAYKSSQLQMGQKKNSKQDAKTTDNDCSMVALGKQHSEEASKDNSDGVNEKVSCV
row,SMILES,Activity
1,CN(C)CCc1c[nH]c2cccc(OC(=O)[C@H]3C[C@@H]3C(=O)Oc3cccc4[nH]cc(CCN(C)C)c34)c12,Active; Higher Activity Observed
2,CN(C)CCc1c[nH]c2cccc(OC(=O)CCCC(=O)Oc3cccc4[nH]cc(CCN(C)C)c34)c12,Active; Higher Activity Observed
3,CN(C)CCc1c[nH]c2cccc(OC(=O)CCC(=O)Oc3cccc4[nH]cc(CCN(C)C)c34)c12,Active; Higher Activity Observed
4,CN(C)CCc1c[nH]c2cccc(OC(=O)c3cccc(C(=O)Oc4cccc5[nH]cc(CCN(C)C)c45)c3)c12,Active; Higher Activity Observed
5,CN(C)CCc1c[nH]c2cccc(OC(=O)c3ccccc3F)c12,Active; Same Activity Observed
6,CN(C)CCc1c[nH]c2cccc(OC(=O)c3ccc(Br)cc3)c12,Active; Same Activity Observed
7,CN(C)CCc1c[nH]c2cccc(O)c12,Active; Same Activity Observed
8,CN(C)CCc1c[nH]c2cccc(OC(=O)C(C)(C)C(=O)Oc3cccc4[nH]cc(CCN(C)C)c34)c12,Active; Higher Activity Observed
